Legend:
[1] = system: YY1; assay: YY1 expression levels by Western blot in hiPsCMs; type: cell-based, human; details: Dox
Description: (§1) Protein extracts (10 μg) obtained were denatured, separated by SDS-PAGE electrophoresis (Bio-Rad), transferred onto PVDF membrane (Millipore) and probed with antibodies to GADPH (MERCK, 8795,1:5000), TBP (CELL SIGNALING, 8515, 1:1000), PR55α (CELL SIGNALING, 5689, 1:1000), phospho-HDAC4 (ABCAM, ab39408, 1:2000), HDAC4 (CELL SIGNALING, 5392, 1:1000), YY1 (CELL SIGNALING, 2185,1:1000) and sST2 (PROTEINTECH, 11,920-1-AP, 1:1000). Membranes were developed using HRP conjugated secondary antibodies and Pierce ECL western blotting substrate (Thermo Fisher Scientific). Signals were detected by chemiluminescence and quantified using ImageJ 1.44p pixel analysis (US National Institutes of Health).

[2] = system: sST2; assay: sST2 expression levels in hiPsCMs; type: cell-based, human; details: Dox 15 h
Description: RNA isolation and quantitative RT-PCR.
as §1

[3] = system: HDAC4-YY1 interaction; assay: Reciprocal co-immunoprecipitation of HDAC4 and YY1 in nuclear fraction of hiPsCMs; type: cell-based, human; details: nuclear fraction from hiPsCMs
Description: Briefly, fresh LV (˜30 mg) tissue or harvested untreated or treated cells (˜3×10^6 cells) were washed using cold DPBS along with 100-fold diluted protease and phosphatase inhibitors. Human cardiomyocytes were pelleted by centrifugation at 480×g for 10 min at 4° C., while the myocardium was placed in a pre-chilled glass Petri dish and minced on ice using sharp scissors. All samples were homogenized in 500 μl of STM buffer at pH 7.4, containing 250 mM sucrose, 50 mM Tris-HCl, 5 mM MgCl2, 5 mM Na3VO4, 1% (v/v) protease and phosphatase inhibitor cocktails and homogenized for 1 min on ice using a tight-fitting Teflon pestle attached to a Potter S. homogenizer (Sartorius Stedium, Goettingen, Germany) set to 800 rpm. The homogenate was maintained on ice for 30 min, vortexed at maximum speed for 15 s and then centrifuged at 800×g for 15 min at 4° C. The pellet was labelled as P0 and kept on ice; the supernatant was labelled as S0. The pellet P0 (containing nuclei and debris) was resuspended in 500 μl STM buffer, vortexed at maximum speed for 15 s and then centrifuged at 500×g for 15 min at 4° C. Following the above step, the nuclear pellet was labelled as P1 and kept on ice, and the supernatant S1 (cell debris) was discarded. […] The protein content of each compartment was determined using the BCA protein assay^48. […]

[4] = system: HDAC4; assay: Phosphorylated and total HDAC4 in cytosol and nucleus (subcellular fractionation, Western blot); type: cell-based, human; details: hiPsCMs; for phosphorylation state of HDAC4 Ser246 in cytosol: Dox 15 h, preincubation 24 h before Dox; for total HDAC4 levels in nuclei fractions: Dox, pretreatment before Dox
Description: Briefly, fresh LV (˜30 mg) tissue or harvested untreated or treated cells (˜3×10^6 cells) were washed using cold DPBS along with 100-fold diluted protease and phosphatase inhibitors. Human cardiomyocytes were pelleted by centrifugation at 480×g for 10 min at 4° C., while the myocardium was placed in a pre-chilled glass Petri dish and minced on ice using sharp scissors. All samples were homogenized in 500 μl of STM buffer at pH 7.4, containing 250 mM sucrose, 50 mM Tris-HCl, 5 mM MgCl2, 5 mM Na3VO4, 1% (v/v) protease and phosphatase inhibitor cocktails and homogenized for 1 min on ice using a tight-fitting Teflon pestle attached to a Potter S. homogenizer (Sartorius Stedium, Goettingen, Germany) set to 800 rpm. The homogenate was maintained on ice for 30 min, vortexed at maximum speed for 15 s and then centrifuged at 800×g for 15 min at 4° C. The pellet was labelled as P0 and kept on ice; the supernatant was labelled as S0. The pellet P0 (containing nuclei and debris) was resuspended in 500 μl STM buffer, vortexed at maximum speed for 15 s and then centrifuged at 500×g for 15 min at 4° C. Following the above step, the nuclear pellet was labelled as P1 and kept on ice, and the supernatant S1 (cell debris) was discarded. To further increase the purity of the P1 fraction it was washed in 400 μl STM buffer, vortexed at maximum speed for 15 s and then centrifuged at 1000×g for 15 min at 4° C. The washed pellet was labelled as P2 (S2 was discarded) and resuspended in 100 μl NET buffer composed of 20 mM Hepes pH 7.9, 1.5 mM MgCl2, 0.5 M NaCl, 0.2 mM EDTA, 20% (v/v) glycerol, 1% (v/v) Triton-X-100 and protease and phosphatase inhibitors, using a pipette to triturate until homogeneity. Pellet P2 was vortexed at maximum speed for 15 s and incubated on ice for 30 min; the resulting fraction contained the nuclei, which were lysed by sonication (Soniprep 150, MSE, London, UK) at a high setting for 10-15 s with 30 s pauses whilst being kept on ice. The lysate was centrifuged at 9000×g for 30 min at 4° C., the resultant supernatant (S3) was the final “nuclear fraction”. […] The protein content of each compartment was determined using the BCA protein assay^48. […]
as §1, with “Membranes were developed using HRP conjugated secondary antibodies and Pierce ECL western blotting substrate (Thermo Fisher Scientific).” left out

[5] = system: PR55α; assay: PR55α expression levels by Western blot in hiPsCMs; type: cell-based, human; details: for decrease in PR55α protein levels: Dox
Excerpt: The hsa-miR-106b-5p sequence of nucleotides was obtained from www.MiRbase.org. Human miR-106b (accession No: MIMAT0000680) and nucleotide sequence of 5′-[…]-3′ are homologous between mice and man. In order to express or block the specific miR-106b function, synthetic pre-miR-106b or antimiR-106 oligonucleotides were transfected into hiPsCMs cells, respectively. Lipofectamine RNAiMAX transfection reagent (ThermoFisher) was used according to the manufacturer's instructions. […] Two day before transfection, hiPsCMs cells were seeded in 6-well plates with 2 ml of STEMdiff™ Cardiomyocyte Support Medium (STEMCELL™ Technologies) to a density of 60%. Stock transfection mixes were made according to manufacturer's instructions. Briefly, 9 μl of Lipofectamine reagent was diluted in 141 μl of Opti-MEM I Medium (Invitrogen) and incubated 5 min at RT. In another tube, pre-miRNA, anti-miRNA or the specific controls oligonucleotides were diluted with Opti-MEM to a final concentration of 50 nM. Both mixes were incubated together for 30 min at RT to allow complex formation between miRNA and lipids. To transfect cells, the STEMdiff™ Cardiomyocyte Support Medium was removed and replaced with 1.75 ml fresh Medium and 250 μl of the appropriate transfection mix. Cells were incubated at 37° C. for […], after which hiPsCMs were treated with […] Dox for 15 h. Transfection efficiency was tested in parallel using both hiPsCMs as well as a mouse cell line HL-1 (FIG. 7). […]
as §1, with “Membranes were developed using HRP conjugated secondary antibodies and Pierce ECL western blotting substrate (Thermo Fisher Scientific).” left out

[6] = system: miR-106b; assay: miR-106b levels by quantitative RT-PCR in hiPsCMs exposed to Dox; type: cell-based, human; details: 5 μM Dox
Description: Human induced pluripotent stem cells (hiPCs) were obtained from Phenocell®, (Catalog No. PCi_CAU) and cultured according to manufacturer's instructions. Briefly, hiPCs on a suitable matrix to allow attachment of cell aggregates (Matrigel®), were grown to 80% confluence using mTeSR™ plus medium. At passage 20, we started reprogramming procedure using a standardize protocol in our laboratory. Thus, culture medium was removed and changed to RPMI-1640 with B27 minus insulin supplement (basal differentiation supplement) with 4 μM CHIR99021 (day 0). On day 3, medium was changed to basal differentiation supplement and 3 μM IWR-1. On day 5, medium was refreshed with basal differentiation supplement. Medium was changed on day 8 to RPMI 1640 with B27 supplement (cited above as RMPI/B27). On day 11, medium was changed to RPMI 1640 without glucose with B27 minus insulin. On day 14, medium was changed to RPMI/B27; procedure that was repeated every 72 h. Beating clusters were observed after 7-14 days. A standardizing gene expression profiling (RT-qPCR) both hiPs as well as hiPsCMs were carried in each human isolated clone, before starting assays. […] The cardiotoxic treatment was carried out by exposing the cell culture to 5 μM doxorubicin for different time period; unless otherwise mentioned. All the in vitro assays were performed as three biological replicates, with technical replicates each time.
Mature miR-106b expression levels were assessed by quantitative RT-PCR using the miRCURY LNA UniRT PCR primer for miR813 106b-5p (Qiagen) and Power SYBR5Green PCR Master Mix (Thermo Fisher Scientific). U6 (Qiagen) was used as internal control to normalize miR-106b expression.

[7] = system: Caspase 3/7 activity in hiPsCMs; assay: Caspase-Glo 3/7 assay; type: cell-based, human; details: 5 μM Dox 15 h
Description: Caspase assay was performed as per the manufacturer's instructions with the Caspase-Glo 3/7 kit (Promega). In this setting, hiPsCMs were treated with 5 μM Dox for 15 h. Next, hiPsCMs and caspase assay reagent were left at RT for 30 min. The next step was adding an equal amount of caspase assay reagent and further incubated for 30 min at RT. Luminescence was measured using a microplate reader CLARIOstar Plus (BMG Labtech).

[8] = system: hiPsCMs; assay: LDH levels in cell supernatant from hiPsCMs; type: cell-based, human; details: Dox 15 h
[9] = system: HL-1 cell line; assay: FOG2 mRNA levels in HL-1 cell line; type: cell-based, mouse; details: 5 μM Dox for 15 h
[10] = system: hiPsCMs; assay: Assay for cell viability (MTT); type: cell-based, human; details: Dox 15 h
Description: After seeding 5×10^3 cells in each 96-well plate, they were incubated in 5% CO2 at 37° C. for 24 h. After cited treatment, MTT solution (1 mg/ml) was added to each well and an incubation was performed for 3 h at 37° C. Next, the medium containing MTT was removed and 100 μL of DMSO was added to each well and pipetted several times to form a completely uniform suspension. The solution was then shaken for 10 min at 37° C. until formazan crystals were completely dissolved. The obtained solution was added to a microtube and centrifuged in 1500 RPM for 5 min to eliminate any impurities. Absorbance of the samples was read at 570 nm and the background value at 690 nm was subtracted. The intrinsic absorbance value of doxorubicin was subtracted when necessary. The index of cell survival at each time point corresponds to the percentage with respect to control.

[11] = system: miR-106b target FOG2 in hiPsCMs; assay: FOG2 mRNA levels (efficiency of miR-106b inhibition) in hiPsCMs; type: cell-based, human; details: preincubation 24 h, then Dox 15 h, vs AC
[12] = system: PP2A; assay: PP2A Immunoprecipitation Phosphatase Assay; type: cell-based, human; details: hiPsCMs, Dox treatment
Description: To measure PP2A phosphatase activity, we used a PP2A Immunoprecipitation Phosphatase Assay Kit (Millipore Sigma, catalog number 17-313). In brief, cells were lysed in 20 mM imidazole HCl, 2 mM EDTA, 2 mM EGTA, pH 7.0 with 10 μg/mL each of aprotinin, leupeptin, pepstatin, 1 mM benzamidine, and 1 mM PMSF. Two milligrams of the lysates were then immunoprecipitated with 2 μg of anti-STRN4 antibody (Abcam, ab177155) and 40 μl of protein-A-agarose beads at 4° C. overnight. Beads were washed three times with lysis buffer followed by the Ser/Thr assay buffer. Phosphatase reactions were then performed in Ser/Thr assay buffer with a final concentration of 750 μM of MAP4K4 phosphopeptides: S771/S775 (A-A-S-pS-L-N-L-pS-N-G-E-T-E-S-V-K), S876 (L-T-A-N-E-T Q-pS-A-S-S-T-L-Q-K) or S1251 (V-F-F-A-pS-V-R-S) for 10 min at 30° C. To provide evidence that the immunoprecipitated phosphatase activity is PP2A, we treated parallel immunoprecipitates with 5 nM of okadaic acid (Cell Signaling, #5934). Dephosphorylation of the phosphopeptide was measured through malachite green phosphate detection at 650 nm.

Compound	YY1 protein expression ([1]; 6 h of treatment) [fold control]	YY1 protein expression ([1]; 15 h, p<0.001)	sST2 expression levels [2]	HDAC4-YY1 interaction [3]	phosphorylation state of HDAC4 Ser246 in cytosol [4]	total HDAC4 levels in nuclei fractions [4]	decrease in PR55α protein levels ([5]; 6 h of treatment) [fold control]	decrease in PR55α protein levels ([5]; 15 h, p<0.001)	miR-106b levels in hiPsCMs ([6]; 3 h of treatment) [fold control]	miR-106b levels in hiPsCMs ([6]; 15 h, p<0.001)	miR-106b levels in the culture media of hiPsCMs ([6]; significant from 15 h)	caspase 3/7 activity (myocardial apoptosis) [7]	release of LDH [8]	FOG2 mRNA levels [9]	loss of Dox-induced cell viability [10]	FOG2 mRNA levels [11]	PR55α levels ([5]; with or without Dox)	PP2A activity [12]
COc1cccc2c1C(=O)c1c(O)c3c(c(O)c1C2=O)C[C@@](O)(C(=O)CO)C[C@@H]3O[C@H]1C[C@H](N)[C@H](O)[C@H](C)O1 [Dox, doxorubicin]	3.8±0.23	significantly higher	increase in sST2 expression levels	prevent HDAC4-YY1 interaction	significantly increases	significative decrease in total HDAC4 levels	2.6±0.02	significantly higher	2.3±0.03	significantly higher	progressively increased	–	–	–	–	–	–	–
AM106: miRCURY LNA microRNA Inhibitor against miR-106b-5p, 5′-CACTGTCAGCACTTT-3′ (SEQ ID NO 3), sequence shown without LNA pattern (antisense CACUGUCAGCACUUU; LNA-modified inhibitor, LNA pattern not given here)	–	–	reverted this effect	favored these interaction	decreased phosphorylation state of HDAC4	increased	–	–	–	–	–	decrease in caspase 3/7 activity	prevent the release of LDH	increases FOG2 mRNA levels	able to prevent	prevent down-regulation of FOG2 mRNA levels	prevented Dox-induced PR55α degradation	prevented Dox-induced PP2A activity decrease

Source: patent publication US20240417727A1, “ANTAGONIST OF THE MIRNA-106B-5P TO TREAT OR PREVENT THE CARDIOTOXICITY THAT IS DEVELOPED IN ONCOLOGIC PATIENTS AFTER RECEIVING ANTHRACYCLINE-BASED CHEMOTHERAPY” (UNIVERSIDAD DE MURCIA, priority 2021, published 2024)
